Key:
Experiment in all cases: relative viability (nuclei count vs DMSO), 5 days (fraction); higher = more cells survive
RO-3306 + Alpelisib = compound: C1=CC2=C(C=CC(=C2)C=C3C(=O)NC(=NCC4=CC=CS4)S3)N=C1 [RO-3306] + Cc1nc(NC(=O)N2CCC[C@H]2C(N)=O)sc1-c1ccnc(C(C)(C)C(F)(F)F)c1 [Alpelisib] (partner 2 µM)
Procedure, shortened: (§1)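 Lung cancer cell lines, seeded in 1536-well plates, were treated the following day by pin tool with a single drug or with five library-drug doses (not always all listed) in √10 steps on top of a fixed anchor-drug dose. Cells were fixed and nuclei stained in one step after 5 days, and nuclei were counted. Relative viability is the nuclei count for treated wells divided by that for vehicle wells, reported as medians of duplicate plates.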

[1] = compound: O=S(=O)(c1ccccc1)N(CC(F)(F)F)c1ccc(C(O)(C(F)(F)F)C(F)(F)F)cc1 + CC(C)C[C@H](NC(=O)[C@H](Cc1ccccc1)NC(=O)c1cnccn1)B(O)O [Bortezomib] (partner 0.002 µM)
Procedure, shortened: as §1

RO-3306 + OSI-027 = compound: C1=CC2=C(C=CC(=C2)C=C3C(=O)NC(=NCC4=CC=CS4)S3)N=C1 [RO-3306] + COc1cccc2cc(-c3nc([C@H]4CC[C@H](C(=O)O)CC4)n4ncnc(N)c34)[nH]c12 [OSI-027] (partner 0.5 µM)
Procedure, shortened: as §1

[2] = compound: O=S(=O)(c1ccccc1)N(CC(F)(F)F)c1ccc(C(O)(C(F)(F)F)C(F)(F)F)cc1 + Cc1nc(Nc2ncc(C(=O)Nc3c(C)cccc3Cl)s2)cc(N2CCN(CCO)CC2)n1 [Dasatinib] (partner 0.075 µM)
Procedure, shortened: as §1

| Cell Line | relative viability (RO-3306 + Alpelisib; first compound 0.01 µM) | relative viability (RO-3306 + Alpelisib; first compound 0.03162 µM) | relative viability (RO-3306 + Alpelisib; first compound 0.1 µM) | relative viability (RO-3306 + Alpelisib; first compound 0.3162 µM) | relative viability (RO-3306 + Alpelisib; first compound 1 µM) | relative viability ([1]; first compound 0.8 µM) | relative viability ([1]; first compound 2.53 µM) | relative viability ([1]; first compound 8 µM) | relative viability (RO-3306 + OSI-027; first compound 0.01 µM) | relative viability (RO-3306 + OSI-027; first compound 0.03162 µM) | relative viability (RO-3306 + OSI-027; first compound 0.1 µM) | relative viability (RO-3306 + OSI-027; first compound 0.3162 µM) | relative viability (RO-3306 + OSI-027; first compound 1 µM) | relative viability ([2]; first compound 0.8 µM) | relative viability ([2]; first compound 2.53 µM) | relative viability ([2]; first compound 8 µM) |
| --- | --- | --- | --- | --- | --- | --- | --- | --- | --- | --- | --- | --- | --- | --- | --- | --- |
| IA-LM | 0.895 | 0.56 | 0.725 | 0.708 | 0.948 | 0.727 | 0.522 | 0.77 |  |  |  |  |  |  |  |  |
| LC-2-ad | 1.07 | 0.832 | 0.846 | 0.887 | 0.812 | 1.02 | 1.03 | 0.898 | 0.863 | 0.735 | 0.781 | 0.932 | 0.849 | 0.655 | 0.525 | 0.627 |
| LCLC-97TM1 |  | 0.243 | 0.243 | 0.27 | 0.179 | 0.397 | 0.457 | 0.723 | 0.53 | 0.391 | 0.476 | 0.549 | 0.454 | 0.724 | 0.734 | 0.682 |
| LCLC-103H | 0.919 | 0.976 | 1.03 | 0.962 | 0.948 | 1.18 | 1.04 | 1.12 | 0.479 | 0.392 | 0.45 | 0.418 | 0.508 | 0.553 | 0.484 | 0.51 |
| LK-2 | 1.27 | 0.897 | 1.02 | 1.31 | 1.03 |  |  |  | 0.209 |  | 0.157 | 0.17 | 0.202 | 0.36 | 0.37 | 0.432 |
| LOU-NH91 | 0.7 | 0.705 | 0.764 | 0.708 | 0.671 | 0.536 | 0.51 | 0.484 | 0.686 | 0.712 | 0.711 | 0.719 | 0.686 | 0.576 | 0.567 | 0.68 |
| LU99A | 0.492 | 0.452 | 0.564 | 0.472 | 0.491 | 1.34 | 1.17 | 1.16 | 0.296 | 0.284 | 0.297 | 0.317 | 0.274 | 0.652 | 0.603 | 0.629 |
| LXF-289 | 1.08 | 1.01 | 1.03 | 1.05 | 1.05 | 0.952 | 0.899 | 0.898 | 0.801 | 0.778 | 0.681 | 0.739 | 0.63 | 0.163 | 0.141 | 0.153 |
| NCI-H23 | 0.729 | 0.685 | 0.573 | 0.69 | 0.517 | 1.45 | 1.23 | 1.09 | 0.531 | 0.462 | 0.575 | 0.519 | 0.403 | 1.03 | 1.04 | 0.907 |
| NCI-H322M | 0.8 | 0.7 | 0.707 | 0.888 | 0.827 | 1.48 | 1.02 | 1.23 | 0.535 | 0.527 | 0.532 | 0.571 | 0.503 | 0.261 | 0.267 | 0.288 |
| NCI-H358 | 0.868 | 0.711 | 0.759 | 0.809 | 0.556 |  |  |  | 0.587 | 0.658 | 0.79 | 0.741 | 0.59 | 0.124 | 0.144 | 0.148 |
| NCI-H441 | 1 | 0.556 | 0.563 | 0.657 | 0.66 | 0.737 | 0.479 | 0.597 | 0.555 | 0.506 | 0.541 | 0.617 | 0.534 | 0.868 | 0.501 | 0.577 |
| NCI-H460 | 0.571 |  | 0.503 | 0.656 | 0.426 | 1.29 | 1.03 | 1.02 | 0.613 | 0.492 | 0.654 | 0.835 | 0.605 | 0.654 | 0.459 | 0.574 |
| NCI-H522 |  |  |  |  |  |  |  |  | 0.68 | 0.695 | 0.622 | 0.711 | 0.715 | 0.821 | 0.904 | 1.07 |
| NCI-H1299 | 1.07 | 0.808 | 1.05 | 1.07 | 1.12 | 1.02 | 0.981 | 0.946 |  |  |  |  |  |  |  |  |
| NCI-H1395 | 1.12 | 1.22 | 1.1 | 1.03 | 1.02 |  |  |  | 0.598 | 0.674 | 0.502 | 0.618 | 0.612 | 0.321 | 0.375 | 0.414 |
| NCI-H1623 |  |  |  |  |  |  |  |  | 0.408 | 0.384 | 0.45 | 0.368 | 0.405 | 0.528 | 0.51 | 0.493 |
| NCI-H1648 |  |  |  |  |  |  |  |  | 0.247 |  | 0.289 | 0.249 | 0.241 |  |  |  |
| NCI-H1650 |  |  |  |  |  | 0.203 | 0.187 | 0.194 | 0.715 | 0.409 | 0.516 | 0.637 | 0.587 | 0.343 | 0.316 | 0.389 |
| NCI-H1703 | 0.467 | 0.324 | 0.342 | 0.262 | 0.307 | 0.389 | 0.185 | 0.381 |  |  |  |  |  |  |  |  |
| NCI-H1793 | 0.686 | 0.577 | 0.739 | 0.59 | 0.565 |  |  |  | 0.266 | 0.277 | 0.291 | 0.251 | 0.262 | 0.375 | 0.335 | 0.347 |
| NCI-H1944 | 0.789 | 0.739 | 0.816 | 0.934 | 0.829 |  |  |  | 0.399 | 0.366 | 0.361 | 0.394 | 0.335 | 0.222 | 0.233 | 0.191 |
| NCI-H2170 | 0.772 | 0.687 | 0.765 | 0.825 | 0.77 |  |  |  | 0.819 | 0.702 | 0.726 | 0.655 | 0.697 | 0.568 | 0.588 | 0.444 |
| NCI-H2342 |  |  |  |  |  |  |  |  | 0.664 | 0.559 | 0.616 | 0.575 | 0.596 | 0.286 | 0.31 | 0.326 |
| SK-MES-1 | 0.9 | 0.553 | 0.831 | 0.983 | 0.922 |  |  |  | 0.657 | 0.558 | 0.693 | 0.794 | 0.612 | 0.318 | 0.332 | 0.255 |
| SW 900 |  |  |  |  |  |  |  |  | 0.486 | 0.427 | 0.467 | 0.551 | 0.266 | 0.625 | 0.563 | 0.478 |

From the supplement of paper PMC10307832
